This test deals with T1, calcium channel (guinea-pig isolated ileal longitudinal smooth muscle) (Cavia porcellus, UniProt O35505).
T1 construct: The longitudinal smooth muscle is carefully separated from the underlying circular muscle layer; from tissue; host or cells: guinea-pig ileal longitudinal smooth muscle
Put plainly: Calcium Channel Antagonist Activity in Guinea-Pig Isolated Ileal Smooth Muscle. Format: cell-based. From the text: Calcium Channel Antagonist Activity in Guinea-Pig Isolated Ileal Smooth Muscle.
Male albino guinea-pigs are sacrificed by stunning and exsanguination. The abdominal cavity is opened and the small intestine is removed, with about 10 cm of the terminal ileum being discarded. The tissue is placed in a dish containing Tyrode's solution (composition, mM: […]; KCl 2.68; NaHCO3 11.90; NaH2 PO4 0.36; MgCl2 0.98; CaCl2 1.77; dextrose 5.55), and cut into three to four segments. A glass rod (6 mm diameter) is carefully inserted into the lumen of each segment, and excess connective tissue or fat is removed. The longitudinal smooth muscle is carefully separated from the underlying circular muscle layer by gently stroking a moist cotton swab on a tangent to shallow, longitudinal incisions made parallel to the mesenteric attachment. Using gentle traction, and taking care to keep the segment moist at all times, the preparation is stripped from the remaining length of the ileal segment (Paton & Zar, J. Physiol. 194, 13; 1968).
Each preparation is suspended in a 10 mL jacketed glass tissue bath containing Tyrode's solution maintained at 37° C. and gassed with 5% CO2 in O2. The preparation is attached by silk thread to a force-displacement transducer. […] The initial resting tension is adjusted to 0.5 g and the preparation equilibrated for 55 minutes prior to experimentation. At the end of this period, the bathing solution is replaced with Ca^2+ -free Tyrode's solution. This solution is prepared by omitting CaCl2. The preparation is washed four times in Ca^2+ -free Tyrode 's to remove any Ca^2+ remaining in the bath, and allowed to equilibrate for a further 20 minutes.
Concentration-response curves to CaCl2 are obtained using the following procedure. Preparations are exposed to a depolarizing concentration of KCl (80 mM) for 6 minutes. At the end of this period CaCl2 is added to the bath cumulatively in the concentration range 0.2-8.0 mM. Successive additions of each Ca^2+ concentration are carried out only when the previous response has reached a plateau. When the maximum response has been attained the bath is again washed (five times) with Ca^2+ -free buffer, and the preparation re-equilibrated for approximately 15 minutes. A second Ca^2+ concentration-response curve is then obtained in the same manner. This second curve serves as control for that tissue.
Further curves are obtained in the presence of increasing concentrations of the test drugs. Where appropriate, the test drug is added to the bath immediately following addition of KCl, and 6 minutes later the concentration-response curve to Ca^2+ is obtained. Each test preparation is exposed to three different concentrations of a test drug.
For each ileal preparation, the control EC50 for Ca^2+ (the concentration producing 50% of the maximum response) is determined from the control concentration-response curve. Calcium blocking activity is defined as a Kb value (the concentration producing a two-fold dextral shift in the control curve), calculated from EC50 ratios in the absence and presence of test drugs.

Where [1] appears, read: Kb = concentration producing a two-fold dextral shift in the control CaCl2 concentration-response curve, KCl (80 mM) depolarized ileal smooth muscle, read-out: Calcium antagonist Kb.

Where a name gives a salt, the structure may show the parent alone. Read-outs that look alike come from different tables or passages of the source.

Data on 39 compounds can be found in patent US4877779A, “2-aminomethylalkynylalkyl-1,3-dithiane derivatives” (priority 1988, dated 1989).

T1 sequence (O35505 whole entry): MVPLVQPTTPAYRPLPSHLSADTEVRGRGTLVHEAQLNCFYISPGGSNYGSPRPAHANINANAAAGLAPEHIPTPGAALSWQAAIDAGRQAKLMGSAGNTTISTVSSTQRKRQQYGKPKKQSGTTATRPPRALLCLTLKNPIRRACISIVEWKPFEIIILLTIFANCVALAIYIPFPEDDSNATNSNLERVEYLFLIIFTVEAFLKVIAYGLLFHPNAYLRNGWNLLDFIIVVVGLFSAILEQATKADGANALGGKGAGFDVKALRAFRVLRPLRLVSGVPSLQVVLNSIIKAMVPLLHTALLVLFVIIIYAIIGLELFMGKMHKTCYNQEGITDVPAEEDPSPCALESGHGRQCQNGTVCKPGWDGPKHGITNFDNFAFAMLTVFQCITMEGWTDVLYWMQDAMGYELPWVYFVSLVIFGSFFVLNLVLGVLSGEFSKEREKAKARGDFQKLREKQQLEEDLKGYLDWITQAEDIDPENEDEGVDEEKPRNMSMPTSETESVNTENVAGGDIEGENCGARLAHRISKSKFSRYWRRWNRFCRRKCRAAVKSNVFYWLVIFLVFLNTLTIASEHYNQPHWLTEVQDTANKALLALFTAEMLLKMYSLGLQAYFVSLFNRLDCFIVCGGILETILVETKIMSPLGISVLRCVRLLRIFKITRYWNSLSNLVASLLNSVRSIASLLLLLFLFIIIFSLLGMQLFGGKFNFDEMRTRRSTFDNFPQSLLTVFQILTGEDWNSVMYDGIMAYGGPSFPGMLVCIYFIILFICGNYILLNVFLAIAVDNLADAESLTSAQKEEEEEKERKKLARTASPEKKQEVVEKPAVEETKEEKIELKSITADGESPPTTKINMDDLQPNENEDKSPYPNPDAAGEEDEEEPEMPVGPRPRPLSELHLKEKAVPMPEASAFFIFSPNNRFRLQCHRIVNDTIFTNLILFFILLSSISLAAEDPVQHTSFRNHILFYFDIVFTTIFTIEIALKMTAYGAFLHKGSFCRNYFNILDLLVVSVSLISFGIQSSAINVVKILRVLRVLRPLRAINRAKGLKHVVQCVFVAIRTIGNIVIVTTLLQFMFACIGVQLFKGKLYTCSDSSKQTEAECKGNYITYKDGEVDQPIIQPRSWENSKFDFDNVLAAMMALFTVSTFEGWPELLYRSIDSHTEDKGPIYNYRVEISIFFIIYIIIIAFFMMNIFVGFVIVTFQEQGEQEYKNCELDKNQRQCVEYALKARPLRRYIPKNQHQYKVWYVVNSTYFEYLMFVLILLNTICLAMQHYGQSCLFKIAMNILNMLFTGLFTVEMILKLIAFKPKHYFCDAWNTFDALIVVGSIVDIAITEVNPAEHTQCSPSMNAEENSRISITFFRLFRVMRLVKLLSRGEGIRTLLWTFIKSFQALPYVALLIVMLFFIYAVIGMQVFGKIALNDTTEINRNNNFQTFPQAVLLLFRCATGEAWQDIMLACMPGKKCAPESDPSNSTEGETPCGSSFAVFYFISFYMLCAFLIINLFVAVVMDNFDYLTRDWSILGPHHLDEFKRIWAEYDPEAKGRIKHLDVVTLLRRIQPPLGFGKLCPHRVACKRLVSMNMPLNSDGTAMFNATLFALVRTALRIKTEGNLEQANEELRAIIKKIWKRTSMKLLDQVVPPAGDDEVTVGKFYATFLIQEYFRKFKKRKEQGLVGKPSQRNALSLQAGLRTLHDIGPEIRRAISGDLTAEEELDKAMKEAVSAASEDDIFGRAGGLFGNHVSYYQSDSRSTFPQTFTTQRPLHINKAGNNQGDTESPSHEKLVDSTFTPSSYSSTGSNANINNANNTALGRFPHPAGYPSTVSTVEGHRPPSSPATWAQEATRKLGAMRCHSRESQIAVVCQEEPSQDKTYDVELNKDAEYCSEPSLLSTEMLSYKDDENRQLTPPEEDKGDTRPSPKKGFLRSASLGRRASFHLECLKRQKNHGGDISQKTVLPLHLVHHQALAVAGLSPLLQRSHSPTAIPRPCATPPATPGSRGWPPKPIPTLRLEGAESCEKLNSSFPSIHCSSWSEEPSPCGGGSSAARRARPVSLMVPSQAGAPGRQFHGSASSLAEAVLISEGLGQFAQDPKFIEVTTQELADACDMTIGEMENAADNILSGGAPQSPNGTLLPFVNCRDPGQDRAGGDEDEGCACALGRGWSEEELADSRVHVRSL

Take `CCN(CC)CC#CCCC1(C2(O)CCOc3ccccc32)SCCCS1` (stereo not drawn) [2(5-Diethylaminopent-3-ynyl)-2-(4-hydroxy-4H-chromanyl)-1,3-dithiane]: the Kb under setting [1] is 1940 ± 210 nM.

Take `CCN(CC)CC#CCCC1(C2(O)c3ccccc3-c3ccccc32)SCCCS1` [2(5-Diethylaminopent-3-ynyl)-2-(9-hydroxy-9H-fluoren-9-yl)-1,3-dithiane]: the Kb under setting [1] turned out to be 500 ± 100 nM.

Consider `CCCN(CC#CCC1(c2ccccc2)SCCCS1)CCC` [2-(4-Dipropylaminobut-2-ynyl)-2-phenyl-1,3-dithiane, Oxalate], for which, under setting [1], the Kb worked out at 1010 ± 150 nM.

`CCN(CC)CC#CCC1(c2ccccc2)SCCCS1` [2-(4-diethylaminobut-2-ynyl)-2-phenyl-1,3-dithiane oxalate]: under setting [1], the Kb turned out to be 4270 ± 430 nM.

With `CCN(CC)CC#CCCC1SCCCS1` [2-(5-Diethylaminopent-3-ynyl)-1,3-dithiane Oxalate], under setting [1], the Kb was > 10000 nM.

As for `CCN(CC)CC#CCCC1(C2(O)CCCc3ccccc32)SCCCS1` (stereo not drawn) [2-(5-Diethylaminopent-3-ynyl)-2-(1-hydroxy-1,2,3,4-tetrahydro-1-naphthyl)-1,3-dithiane Hemioxalate], under setting [1], the antagonist equilibrium constant (Kb) worked out at 830 ± 20 nM.

As for `CCN(CC)CC#CCCC1(C2(O)c3ccccc3Sc3ccc(Cl)cc32)SCCCS1` (stereo not drawn) [2-(5-Diethylaminopent-3-ynyl)-2-(2-chloro-9-hydroxy-9H-thioxanthen-9-yl)-1,3-dithiane Oxalate], the antagonist equilibrium constant (Kb) under setting [1] turned out to be 330 ± 50 nM.

For the compound `CCN(CC)CC#CCCC1(C2(O)c3ccccc3C=Cc3ccccc32)SCCCS1` [2-(5-Diethylaminopent-3-ynyl)-2-(5-hydroxy-5H-dibenzo[a,d]cyclohepten-5-yl)-1,3-dithiane Oxalate], the Kb under setting [1] was found to be 300 nM.

Take `CCN(CC)CC#CCCC1(C2(O)c3ccccc3Sc3ccccc32)SCCCS1` [2-(5-Diethylaminopent-3-ynyl)-2-(9-hydroxy-9H-thioxanthen-9-yl)-1,3-dithiane Oxalate]: under setting [1], the antagonist dissociation constant (Kb) was determined as 125 ± 18 nM.

`CCN(CC)CC#CCCC1(C(O)(c2ccccc2)C2CCCCC2)SCCCS1` (stereo not drawn) [2-(5-Diethylaminopent-3-ynyl)-2-(α-cyclohexyl-α-hydroxybenzyl)-1,3-dithiane Hemioxalate]: the antagonist dissociation constant (Kb) under setting [1] amounted to 1140 ± 21 nM.

Take `CCN(CC)CC#CCCC1(C(O)(c2ccccc2)C2CCCC2)SCCCS1` (stereo not drawn) [2-(5-Diethylaminopent-3-ynyl)-2-(α-cyclopentyl-α-hydroxybenzyl-1,3-dithiane Oxalate]: the Kb under setting [1] stood at 500 nM.

`CCN(CC)CC#CCCC1(C(C)(O)c2ccccc2)SCCCS1` (stereo not drawn) [2-(5-Diethylaminopent-3-ynyl)-2-(α-hydroxy-α-methylbenzyl)-1,3-dithiane]: the antagonist equilibrium constant (Kb) under setting [1] turned out to be 2510 ± 400 nM.

In the case of `CCN(CC)CC#CCCC1(C(O)(c2ccccc2)c2ccccc2)SCCCS1` [2-(5-Diethylaminopent-3-ynyl)-2-(α-hydroxy-α-phenylbenzyl)-1,3-dithiane Oxalate], the Kb under setting [1] was 980 ± 160 nM.

Take `CCN(CC)CC#CCCC1(C(c2ccccc2)c2ccccc2)SCCCS1` [2-(5-Diethylaminopent-3-ynyl)-2-benzhydryl-1,3-dithiane Oxalate Hydrate]: the Kb under setting [1] was 500 nM.

As for `CCN(CC)CC#CCCC1(Cc2ccccc2)SCCCS1` [2-(5-Diethylaminopent-3-ynyl)-2-benzyl-1,3-dithiane Oxalate], the antagonist equilibrium constant (Kb) under setting [1] worked out at 1960 ± 400 nM.

Regarding `CCN(CC)CC#CCCC1(c2ccccc2)SCCCS1` [2-(5-Diethylaminopent-3-ynyl)-2-phenyl-1,3-dithiane Oxalate], under setting [1], the antagonist dissociation constant (Kb) was 900 ± 300 nM.

As for `CN(C)CC#CCCC1SCCCS1` [2-(5-Dimethylaminopent-3-ynyl)-1,3-dithiane Oxalate], the antagonist dissociation constant (Kb) under setting [1] is > 10000 nM.

As to `CN(C)CC#CCCC1(C2(O)c3ccccc3Sc3ccc(Cl)cc32)SCCCS1` (stereo not drawn) [2-(5-Dimethylaminopent-3-ynyl)-2-(2-chloro-9-hydroxy-9H-thioxanthen-9-yl)-1,3-dithiane], the Kb under setting [1] was determined as 2330 ± 180 nM.

As for `CN(C)CC#CCCC1(C2(O)c3ccccc3-c3ccccc32)SCCCS1` [2-(5-Dimethylaminopent-3-ynyl)-2-(9-hydroxy-9H-fluoren-9-yl)-1,3-dithiane], under setting [1], the Kb came to 1810 ± 390 nM.

Take `CN(C)CC#CCCC1(C2(O)c3ccccc3Sc3ccccc32)SCCCS1` [2-(5-Dimethylaminopent-3-ynyl)-2-(9-hydroxy-9H-thioxanthen-9-yl)-1,3-dithiane]: the Kb under setting [1] is 680 ± 130 nM.

Regarding `CN(C)CC#CCCC1(C2(O)c3ccccc3Oc3ccccc32)SCCCS1` [2-(5-Dimethylaminopent-3-ynyl)-2-(9-hydroxy-9H-xanthen-9-yl)-1,3-dithiane], under setting [1], the Kb was 1150 ± 200 nM.

For the compound `CCN(C)CC#CCCC1SCCCS1` [2-(5-Ethylmethylaminopent-3-ynyl)-1,3-dithiane Oxalate], the Kb under setting [1] is > 10000 nM.

Turning to `CCN(C)CC#CCCC1(C2(O)c3ccccc3Sc3ccc(Cl)cc32)SCCCS1` (stereo not drawn) [2-(5-Ethylmethylaminopent-3-ynyl)-2-(2-chloro-9-hydroxy-9H-thioxanthen-9-yl)-1,3-dithiane], the antagonist dissociation constant (Kb) under setting [1] came out at 2530 ± 1030 nM.

As to `CCN(C)CC#CCCC1(C2(O)c3ccccc3-c3ccccc32)SCCCS1` [2-(5-Ethylmethylaminopent-3-ynyl)-2-(9-hydroxy-9H-fluoren-9-yl)-1,3-dithiane], the antagonist dissociation constant (Kb) turned out to be 1230 ± 470 nM.

With `CCN(C)CC#CCCC1(C2(O)c3ccccc3Sc3ccccc32)SCCCS1` [2-(5-Ethylmethylaminopent-3-ynyl)-2-(9-hydroxy-9H-thioxanthen-9-yl)-1,3-dithiane], the antagonist dissociation constant (Kb) under setting [1] turned out to be 570 ± 120 nM.

As to `CCN(C)CC#CCCC1(C2(O)c3ccccc3Oc3ccccc32)SCCCS1` [2-(5-Ethylmethylaminopent-3-ynyl)-2-(9-hydroxy-9H-xanthen-9-yl)-1,3-dithiane], under setting [1], the Kb came out at 1510 ± 530 nM.

Turning to `C(#CCN1CCCCC1)CCC1SCCCS1` [2-(5-Piperidinylpent-3-ynyl)-1,3-dithiane Oxalate], the Kb under setting [1] was > 10000 nM.

Turning to `OC1(C2(CCC#CCN3CCCCC3)SCCCS2)c2ccccc2Sc2ccc(Cl)cc21` (stereo not drawn) [2-(5-Piperidinylpent-3-ynyl)-2-(2-chloro-9-hydroxy-9H-thioxanthen-9-yl)-1,3-dithiane], the Kb under setting [1] was found to be 6090 ± 1560 nM.

Turning to `OC1(C2(CCC#CCN3CCCCC3)SCCCS2)c2ccccc2-c2ccccc21` [2-(5-Piperidinylpent-3-ynyl)-2-(9-hydroxy-9H-fluoren-9-yl)-1,3-dithiane], the antagonist dissociation constant (Kb) under setting [1] was 1000 ± 70 nM.

As for `OC1(C2(CCC#CCN3CCCCC3)SCCCS2)c2ccccc2Sc2ccccc21` [2-(5-Piperidinylpent-3-ynyl)-2-(9-hydroxy-9H-thioxanthen-9-yl)-1,3-dithiane], the antagonist equilibrium constant (Kb) under setting [1] came out at 3660 ± 2040 nM.

For `OC1(C2(CCC#CCN3CCCCC3)SCCCS2)c2ccccc2Oc2ccccc21` [2-(5-Piperidinylpent-3-ynyl)-2-(9-hydroxy-9H-xanthen-9-yl)-1,3-dithiane], under setting [1], the Kb stood at 399 ± 40 nM.

Consider `C(#CCN1CCCC1)CCC1SCCCS1` [2-(5-Pyrrolidinylpent-3-ynyl)-1,3-dithiane Oxalate], for which the Kb under setting [1] is > 10000 nM.

As for `CN(CC#CCCCC1SCCCS1)Cc1ccccc1` [2-(6-Benzylmethylaminohex-4-ynyl)-1,3-dithiane Oxalate], the antagonist equilibrium constant (Kb) under setting [1] came out at 4450 ± 160 nM.

For `CCN(CC)CC#CCCCC1SCCCS1` [2-(6-Diethylaminohex-4-ynyl)-1,3-dithiane Oxalate], the antagonist dissociation constant (Kb) under setting [1] is > 10000 nM.

Turning to `CCN(CC)CC#CCCCC1(C2(O)c3ccccc3-c3ccccc32)SCCCS1` [2-(6-Diethylaminohex-4-ynyl)-2-(9-hydroxy-9H-fluoren-9-yl)-1,3-dithiane], the antagonist dissociation constant (Kb) under setting [1] was 810 ± 220 nM.

In the case of `CCN(CC)CC#CCCCC1(C2(O)c3ccccc3Oc3ccccc32)SCCCS1` [2-(6-Diethylaminohex-4-ynyl)-2-(9-hydroxy-9H-xanthen-9-yl)-1,3-dithiane], the antagonist equilibrium constant (Kb) under setting [1] was determined as 170 ± 20 nM.

With `CCCN(CC#CCCCC1(C2(O)c3ccccc3-c3ccccc32)SCCCS1)CCC` [2-(6-Dipropylaminohex-4-ynyl)-2-(9-hydroxy-9H-fluoren-9-yl)-1,3-dithiane], the Kb under setting [1] amounted to 560 ± 80 nM.

In the case of `CCCN(CC#CCCCC1(C2(O)c3ccccc3Sc3ccccc32)SCCCS1)CCC` [2-(6-Dipropylaminohex-4-ynyl)-2-(9-hydroxy-9H-thioxanthen-9-yl)-1,3-dithiane], under setting [1], the Kb was 770 nM.

Consider `CCCN(CC#CCCCC1(C2(O)c3ccccc3Oc3ccccc32)SCCCS1)CCC` [2-(6-Dipropylaminohex-4-ynyl)-2-(9-hydroxy-9H-xanthen-9-yl)-1,3-dithiane], for which the Kb under setting [1] was 470 ± 150 nM.
